The values below come from PubChem BioAssay (NCI).

Test systems include OVCAR-3 ovarian; SF-268 CNS; SF-295 CNS; CAKI-1 renal; M14 melanoma; PC-3 prostate; OVCAR-8 ovarian; KM12 colon; NCI-H460 lung; HS 578T breast.
Assay in all cases: NCI-60 cell line screen, 48 h

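These data come from cells grown in 96-well plates and exposed to compound for 48 hours at five concentrations. Here, GI50 denotes the concentration required for 50% inhibition of growth. TGI denotes the concentration required for complete inhibition of growth.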

For the molecule `O=C(/C=C/c1ccc[nH]1)c1ccc(-n2ccc(C(F)(F)F)n2)cc1`, the GI50 in the test with OVCAR-3 ovarian was 0.764 µM; with SF-268 CNS, 3.8 µM; in the test with SF-295 CNS it was above 25.8 µM; with CAKI-1 renal it was above 31.6 µM; with M14 melanoma, above 100 µM; in the test on PC-3 prostate, 0.371 µM. Besides, the GI50 in the test with OVCAR-8 ovarian was above 100 µM; in the test with KM12 colon, 0.463 µM; in the test on NCI-H460 lung, 84.2 µM; in the test on HS 578T breast it was above 100 µM. Besides, the TGI with OVCAR-3 ovarian was 22.6 µM; with SF-268 CNS, above 100 µM; in the test on SF-295 CNS, above 100 µM; in the test with CAKI-1 renal, above 100 µM; with M14 melanoma it was above 100 µM; in the test with PC-3 prostate, above 100 µM. Besides, the TGI was above 100 µM with OVCAR-8 ovarian, 8.95 µM in the test with KM12 colon, above 100 µM in the test with NCI-H460 lung and above 100 µM in the test with HS 578T breast.
